# Measurements: patent publication US4710500A, “1-(4'-fluorophenyl)-3,5-substituted indoles useful in the treatment of psychic disorders and pharmaceutical compositions thereof” (H. Lundbeck A/S, priority 1985, dated 1987)
# Where a name gives a salt, the structure may show the parent alone. Read-outs that look alike come from different tables or passages of the source.
# How the values were obtained:
# in vivo = details: mouse, iv
# Catalepsy = type: in vivo, rat
# [1] = test system: methylphenidate-induced gnawing; test: Methylphenidate antagonism; type: in vivo, mice; details: for ED50: Mus musculus, ip, read-out: MePh Antg. ED50(ip)
# [2] = molecular target: T1, serotomin2 (5-HT2) receptors (Rattus norvegicus, UniProt P14842); test: 3H-spiroperidol binding, 5-HT2 receptors in rat cortical membranes; details: in vitro, read-out: 3H-Spiroperidol bindings 5-HT2 receptors IC50
# T1 construct: 5-HT2 receptors in rat cortical membranes; from tissue; host or cells: rat cortical membranes
# Procedure: (§1) 4. ^3 H-spiroperidol bindings
# The affinity of compounds to dopamine (DA) D-2 receptors and serotomin2 (5-HT2) receptors was determined by in vitro receptor binding technique. Binding of ^3 H-spiroperidol to DA D-2 receptors in rat striatal membranes and to 5-HT2 receptors in rat cortical membranes was determined as described in detail by Arnt et al. (1984).
# (§2) Arnt, J., J. Hyttel and J.-J. Larsen: Acta pharmacol. et toxicol. 55, 363-372, 1984.
# 5-HT2 receptor = molecular target: T2, 5-HT2 receptor (Rattus norvegicus, UniProt P14842); test: Quipazine inhibition (head twitches); type: in vivo; details: sc 2 hours before quipazine 15 umol/kg sc
# T2 construct: from tissue; host or cells: living rats (in vivo), CNS
# Procedure: Quipazine and a number of other compounds, which increase 5-HT2 receptor activity in the CNS, induce a characteristic rapid shake (twitch) of the head. This response is inhibited by 5-HT2 receptor antagonists (Vetulani et al. 1980, Arnt et al. 1984).
# The test compound or saline is injected subcutaneously 2 hours before subcutaneous injection of quipazine hemimalecate (15umol/kg). At least 3 dose groups, each consisting of at least 4 rats, are used. The rats are individually placed in observation cages (12×25 cm) and the number of head twitches are counted 30-40 min after quipazine administration. Inhibition of head twitches is expressed in per cent of the number of head twitches in the control group. ED 50 values are calculated by log-probit analysis.
# Vetulani, J., B.B. Beduarczyk, K. Reichenberg and A. Rokost: Neuropharmacology 19, 155-158, […].
# as §2
# [3] = molecular target: T3, dopamine (DA) D-2 receptors (Rattus norvegicus, UniProt P61169); test: 3H-spiroperidol binding, dopamine D-2 receptors in rat striatal membranes
# T3 construct: DA D-2 receptors in rat striatal membranes; from tissue; host or cells: rat striatal membranes
# Procedure: as §1
# The affinity of compounds to dopamine (DA) D-2 receptors and serotomin2 (5-HT2) receptors was determined by in vitro receptor binding technique.
# Arnt, J., J. Hyttel and J.-J. Larsen: Acta pharmacol. et toxicol.
# [4] = Rattus norvegicus, po, read-out: Catalep. ED50(po) 1-6 h
# [5] = i.p. test substance, mice, methylphenidate s.c. 60 mg/kg
# [6] = Rattus norvegicus, po, 24 h, read-out: Catalep. ED50(po) 24 h
# [7] = rat striatal membranes, in vitro, read-out: 3H-Spiroperidol bindings DA-2 receptors IC50
# [8] = read-out: Catalep. ED50(po) 1-6 h, po, rat, 1-6 h
# [9] = read-out: Catalep. ED50(po) 24 h, po, rat, 24 h
# [10] = Rattus norvegicus, sc, 24 h, read-out: Catalep. ED50 (sc) 24 h
# [11] = Rattus norvegicus, sc, read-out: Catalep. ED50 (sc) 1-6 h
# T3 sequence (P61169 whole entry): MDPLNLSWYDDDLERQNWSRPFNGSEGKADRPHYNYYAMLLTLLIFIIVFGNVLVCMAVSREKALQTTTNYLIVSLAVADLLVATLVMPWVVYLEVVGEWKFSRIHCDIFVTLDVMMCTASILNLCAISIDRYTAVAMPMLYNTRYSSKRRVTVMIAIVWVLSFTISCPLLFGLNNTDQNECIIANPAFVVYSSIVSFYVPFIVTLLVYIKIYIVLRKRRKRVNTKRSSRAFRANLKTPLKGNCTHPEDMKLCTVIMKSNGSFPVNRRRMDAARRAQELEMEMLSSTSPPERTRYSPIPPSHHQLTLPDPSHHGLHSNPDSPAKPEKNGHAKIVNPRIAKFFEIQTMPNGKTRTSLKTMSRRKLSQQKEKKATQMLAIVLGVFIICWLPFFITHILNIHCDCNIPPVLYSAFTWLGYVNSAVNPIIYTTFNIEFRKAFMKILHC
# T2 sequence (P14842 whole entry): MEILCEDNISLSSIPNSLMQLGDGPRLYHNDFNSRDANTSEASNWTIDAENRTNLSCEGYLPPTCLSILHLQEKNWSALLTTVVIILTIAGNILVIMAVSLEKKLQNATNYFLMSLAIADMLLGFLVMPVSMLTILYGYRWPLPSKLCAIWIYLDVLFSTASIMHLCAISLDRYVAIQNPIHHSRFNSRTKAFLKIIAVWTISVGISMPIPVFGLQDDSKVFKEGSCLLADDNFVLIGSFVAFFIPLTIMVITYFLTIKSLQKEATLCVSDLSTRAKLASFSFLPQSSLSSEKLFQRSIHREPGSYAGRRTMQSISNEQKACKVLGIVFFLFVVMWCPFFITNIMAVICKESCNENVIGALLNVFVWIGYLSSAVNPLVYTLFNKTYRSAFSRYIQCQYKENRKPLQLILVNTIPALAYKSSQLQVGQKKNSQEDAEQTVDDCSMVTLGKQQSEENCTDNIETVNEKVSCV
# T1 sequence (P14842 whole entry): as above
Compound,ED50 (Catalepsy; [4]) [µmol/kg],ED50 [1] [µmol/kg],IC50 [2] [nM],Qvipaz. inh. ED50(sc) (5-HT2 receptor) [µmol/kg],"MePh Antg. ED50(ip) [1, 5] [µmol/kg]",IC50 [3] [nM],"IC50 [3, 7] [nM]","ED50 [1, 5] [µmol/kg]",also measured
"CN(C)CCCN1c2ccccc2Sc2ccc(Cl)cc21 [Clorpromazine, reference compound]",70,23,–,–,–,–,–,–,LD50 (in vivo): 120 to 180 µmol/kg
"Cc1ccc2c(c1)c(C1=CCN(C)CC1)cn2-c1ccc(F)cc1.Cl [Lu 20-089, 1-(4'-Fluorophenyl)-5-methyl-3-(1-methyl-1,2,3,6-tetrahydropyridin-4-yl)-1H-indole, hydrochloride]",–,–,1.8,0.12,0.18,0.34,–,–,"Catalep. ED50(po) 1-6 h (Catalepsy; po, rat, 1-6 h): 0.43 µmol/kg; Catalep. ED50(po) 24 h (Catalepsy; po, rat, 24 h): 6.5 µmol/kg"
"CN1CC=C(c2cn(-c3ccc(F)cc3)c3ccc(F)cc23)CC1.Cl [Lu 21-018, 5-Fluoro-1-(4'-fluorophenyl)-3-(1-methyl-1,2,3,6-tetrahydropyridin-4-yl)-1H-indole, hydrochloride]",2,0.58,3,0.15,–,–,0.74,–,ED50 (Catalepsy; [6]): > 6.9 µmol/kg
"CN1CC=C(c2cn(-c3ccc(F)cc3)c3ccc(C(F)(F)F)cc23)CC1.O=C(O)C(=O)O [Lu 21-120, 1-(4'-Fluorophenyl)-3-(1-methyl-1,2,3,6-tetrahydropyridin-4-yl)-5-trifluoromethyl-1H-indole, oxalate]",0.32,0.08,3.1,0.03,–,0.61,–,–,ED50 (Catalepsy; [6]): 0.35 µmol/kg
"CN1CCN(c2cn(-c3ccc(F)cc3)c3ccc(C(F)(F)F)cc23)CC1 [Lu 21-123, 1-(4'-Fluorophenyl)-3-(4-methylpiperazio)-5-trifluoromethyl-1H-indole, dihydrochloride]",–,–,6.7,–,–,–,1.7,0.09,ED50 (Catalepsy; [8]): 0.08 µmol/kg; ED50 (Catalepsy; [9]): 0.62 µmol/kg
"Fc1ccc(-n2cc(N3CCNCC3)c3cc(C(F)(F)F)ccc32)cc1 [Lu 21-153, 1-(4'-Fluorophenyl)-3-piperazino-5-trifluoromethyl-1H-indole]",–,–,6.7,0.37,–,–,3.7,2,ED50 (Catalepsy; [8]): 7.1 µmol/kg; ED50 (Catalepsy; [9]): 16 µmol/kg
"Br.CN1CC=C(c2cn(-c3ccc(F)cc3)c3ccc(Cl)cc23)CC1 [Lu 22-117, 5-Chloro-1-(4'-fluorophenyl)-3-(1-methyl-1,2,3,6-tetrahydropyridin-4-yl)-1H-indole, hydrobromide]",–,0.06,0.66,0.052,–,1.2,–,–,ED50 (Catalepsy; [10]): > 0.37 µmol/kg; ED50 (Catalepsy; [11]): 0.09 µmol/kg
"O=C1CCCN1CCN1CCN(c2cn(-c3ccc(F)cc3)c3ccc(C(F)(F)F)cc23)CC1 [Lu 22-133, 1-(4'-Fluorophenyl)-3-(4-(1-pyrrolidin-2-onylethyl)-1-piperazino)-5-trifluoromethyl-1H-indole]",–,–,1.9,0.15,–,–,–,0.82,ED50 (Catalepsy; [10]): 1.7 µmol/kg; ED50 (Catalepsy; [11]): 0.66 µmol/kg
"O=C1NCCN1CCN1CCN(c2cn(-c3ccc(F)cc3)c3ccc(C(F)(F)F)cc23)CC1 [Lu 23-001, 1-(4'-Flurophenyl)-3-(4-(2-imidazolidinon-1-ylethyl)-1-piperazino)-5-trifluoromethyl-1H-indole, dihydrobromide]",–,–,18,0.047,0.22,–,6.6,–,"Catalep. ED50(po) 1-6 h (Catalepsy; po, rat, 1-6 h): 1.2 µmol/kg; Catalep. ED50(po) 24 h (Catalepsy; po, rat, 24 h): 2.6 µmol/kg"
"O=C1CCCN1CCN1CC=C(c2cn(-c3ccc(F)cc3)c3ccc([N+](=O)[O-])cc23)CC1 [Lu 23-024, 1-(4'-Fluorophenyl)-5-nitro-3-(1-pyrrolidin-2-onylethyl)-1,2,3,6-tetrahydropyridin-4-yl)-1H-indole, hydrochloride]",–,–,5.3,–,0.65,–,–,–,"Catalep. ED50 (sc) 1-6 h (Catalepsy; *ED50 from sc administration, rat, 1-6 h): 6.8 µmol/kg; Catalep. ED50 (sc) 24 h (Catalepsy; *ED50 from sc administration, rat, 24 h): > 10 µmol/kg"
